The results in this text go back to ChEMBL document CHEMBL3507680, “University of Dundee, Gates Library screen for HepG2 cell viability”.

This data set in a line: Human HepG2 cell viability assay in 384 well format. Type of data set: toxicity, cell-based. More on the design: dose 125 nL, time 70.5 hour; concentration not given beside the values. The settings on record: HepG2 cells, read-out: Inhibition.
For the molecule `Cc1cnn(CCNCc2ccc(OCc3cccnc3)cc2)c1`, the cytotoxicity at 70.5 h is -4.14%.
With `Cc1cc(C(=O)NCc2ccc(N3CCCC(C(N)=O)C3)cc2)on1` (centres undefined) the figure was -3.31%.
As for `Cc1nn(C)c(N(C)C)c1CNCc1ccccc1CO`, the cytotoxicity at 70.5 h is -0.166%.
In the case of `O=C(c1ccc2c(c1)OCO2)N1CCCC(n2ccnc2)C1` (centres undefined), the cytotoxicity at 70.5 h came out at 10.2%.
With `COc1cc(C(=O)N2CCCC(n3ccnc3)C2)cc2c1OCCO2` (centres undefined) the figure was -7.87%; with `CCc1ccsc1C(=O)N1CCN(CC(C)(C)O)CC1`, -5.61%; with `CN(C)CC1CN(Cc2coc(-c3ccccc3)n2)CCO1` (centres undefined), -5.29%.
`CC(C)(O)CN1CCN(C(=O)c2sccc2C#N)CC1`: the cytotoxicity at 70.5 h was -3.64%.
Turning to `Cc1cnn(CC2CCCN2Cc2noc(C(C)C)n2)c1` (centres undefined), the cytotoxicity at 70.5 h was -5.54%.
With `Cc1cc(C(=O)N2CCCC2c2c(C)nn(C)c2C)no1` (centres undefined) the figure was -10.1%.
In the case of `Cc1cnn(CC2CCCN2Cc2noc(CC(C)C)n2)c1` (centres undefined), the cytotoxicity at 70.5 h was -0.847%.
As for `O=C(c1sccc1C1CC1)N1CCN(CC(F)(F)F)CC1`, the cytotoxicity at 70.5 h was -1.63%.
As to `Cc1cnn(CC(C)NCc2ccccc2OCc2cccnc2)c1` (centres undefined), the cytotoxicity at 70.5 h is -7.82%.
Take `O=C(c1cc(Cl)c2c(c1)OCO2)N1CCCC(n2cncn2)C1` (centres undefined): the cytotoxicity at 70.5 h was -4.61%.
The result for `Cc1cc(C)n(CC2CN(CC(=O)NCc3ccccn3)CCO2)n1` (centres undefined) reads -2.74%; that for `Cc1cnn(CC2CCCN2Cc2noc(C(C)(C)C)n2)c1` (centres undefined), -2.54%.
With `CCn1cnnc1CNC(=O)N1CCCC1` the figure was 5.61%.
The result for `Cc1nn(C)c(N(C)C)c1CNCc1cccc(Cn2cncn2)c1` reads -3.12%; that for `Cc1cnn(CC(C)NCc2ccc(OCc3noc(C)n3)cc2)c1` (centres undefined), -0.0911%.
In the case of `Cc1cnn(CC(C)NCc2ccncc2)c1` (centres undefined), the cytotoxicity at 70.5 h worked out at 0.737%.
With `Cc1cnn(CC(C)NCc2ccc(OCc3nccn3C)cc2)c1` (centres undefined) the figure was -5.96%; with `Cc1cnn(CC2CCCCN2C(=O)Cc2cn3ccsc3n2)c1` (centres undefined), 11.4%.
The result for `Cc1nc(C2CCCN(C(=O)c3cccc4c3OCCO4)C2)no1` (centres undefined) reads -1.54%; that for `Cc1nnc2n1CCN(CCOc1cccc(C#N)c1)C2`, -4.21%; that for `Cc1nc(-c2ccsc2)ccc1C(=O)NCCC(=O)N1CCCC1`, -3.29%.
With `CCNc1cc2c(nn1)CCN(C(=O)c1ccc(NC3CC3)nc1)C2` the figure was 1.85%; with `CCNc1cc2c(nn1)CCN(C(=O)c1ccnc(N(C)C)c1)C2`, 0.651%; with `Cc1ccc(CC(=O)N2CCN(CC(O)c3ccccc3)CC2)cn1` (centres undefined), 1.06%.
In the case of `CNc1nc(CNC(=O)Nc2ccccc2SC)cs1`, the cytotoxicity at 70.5 h is 3.31%.
Consider `Cc1ccc(SCC(=O)NS(=O)(=O)c2ccc3c(c2)OCCO3)cc1`, for which the cytotoxicity at 70.5 h is -1.91%.
Regarding `Cc1cnn(CCNCc2csc(-c3ccc(F)cc3)n2)c1`, the cytotoxicity at 70.5 h is 3.66%.
The result for `Cc1cnn(CCNCc2nc(COc3ccc(F)cc3)no2)c1` reads 6.22%.
The result for `CCc1ccc(C(=O)N2CCN(CC(C)O)CC2)o1` (centres undefined) reads 2.04%; that for `Cc1nc(C)n(CC2CCCN2CCc2cccs2)n1` (centres undefined), 39.6%; that for `c1ccc(-c2cnc(CN3CCn4c(nnc4C4CC4)C3)o2)cc1`, -9.82%.
The result for `Clc1ccccc1-c1nc(CNCCn2cccn2)cs1` reads -6.01%; that for `CC(C(=O)NCc1ccnc(N2CCCC2)c1)n1cncn1` (centres undefined), -1.47%; that for `CC(=O)N1CCCN(C(=O)CCc2c(C)noc2C)CC1`, -16.4%.
As for `CCn1ccnc1CN1CCN(Cc2ccc(C#N)cc2)CC1`, the cytotoxicity at 70.5 h is 28.9%.
The result for `CCOc1ccccc1OC1CCN(C(=O)c2cc[nH]n2)CC1` reads -1.68%; that for `CC(NC(=O)N(C)Cc1ccsc1)c1ccc2c(c1)OCO2` (centres undefined), -14.1%.
The result for `Cc1cc(C)c(CNC(=O)NCc2ccc3c(c2)CCC3)c(=O)[nH]1` reads -10.5%.
The result for `Cc1ccc(C(=O)N2CCN(CC(O)c3ccc(F)cc3)CC2)s1` (centres undefined) reads -6.7%; that for `CC(C)Oc1ncccc1CNC(=O)N1CCC1c1ccccc1` (centres undefined), 26.6%; that for `Cc1cc2n(n1)CC(CNCc1ccc(-n3cccn3)nc1)CN2` (centres undefined), 3.95%.
As for `CCOc1ccccc1C(CC(=O)Nc1nc(C)cs1)NC(C)=O` (centres undefined), the cytotoxicity at 70.5 h was -8.99%.
With `Cc1cc(C)n(CC2CCCN2C(=O)CCCc2ccccn2)n1` (centres undefined), the cytotoxicity at 70.5 h is -5.04%.
`CC(C)c1ncc2c(n1)CN(Cc1ccc(C(N)=O)cc1)CC2`: the cytotoxicity at 70.5 h came out at 24.1%.
The result for `CC(C(=O)NCc1cccc(N2CC=CC2)c1)n1cccn1` (centres undefined) reads -7.35%; that for `Cc1nc(C2CCCN2C(=O)c2cc3c(s2)CCCC3)no1` (centres undefined), -3.98%; that for `O=C(Cc1ccc2c(c1)CCO2)N1CCN(c2cnccn2)CC1`, 23.2%.
The result for `CCOC(=O)N1CCC(C(=O)c2cc(F)ccc2F)CC1` reads -8.51%.
Take `C=C(Cl)CN1CCC(C(=O)c2cc(F)ccc2F)CC1`: the cytotoxicity at 70.5 h was -10.5%.
`Cc1nc(C2CCCN2CC(=O)N2CCCc3ccccc32)no1` (centres undefined): the cytotoxicity at 70.5 h was -6.37%.
The result for `Cc1ccc(-c2nc(CNCCn3cccn3)cs2)o1` reads -7.84%; that for `CC(C(=O)NCCOc1ccc2c(c1)OCO2)n1cncn1` (centres undefined), -13.4%.
With `COc1ccc2c(c1)CCCN2Cc1nc2c(cnn2C)c(=O)[nH]1`, the cytotoxicity at 70.5 h is -11.4%.
Take `Cc1cc(C)cc(C2(C(=O)NC(C)Cn3ccnc3)CC2)c1` (centres undefined): the cytotoxicity at 70.5 h is 9.35%.
With `N#CC1(C(=O)N2CCN(Cc3cscn3)CC2)CCCC1` the figure was 14.2%; with `CCn1cnnc1C1CCN(C(=O)c2cnc(C3CC3)s2)CC1`, -10.2%.
The result for `CCc1nnc2n1CCN(C(=O)Cc1csc(-c3ccco3)n1)C2` reads -15.6%; that for `CCc1nnc2n1CCN(C(=O)c1ccc(C(F)(F)F)nc1C)C2`, -15.4%.
The result for `CCc1nc2n(n1)CC(NCC(=O)Nc1cc(C)on1)CC2` (centres undefined) reads 12.5%; that for `CCc1nc2n(n1)CC(NCC(=O)Nc1ccc(Cl)cn1)CC2` (centres undefined), -18.9%; that for `O=C(NCc1ccccn1)N(Cc1ccc(F)cc1F)C1CC1`, -17.3%.
`O=C(Cn1cnnn1)N1CCCCC1Cn1cccn1` (centres undefined): the cytotoxicity at 70.5 h turned out to be 17.9%.
The result for `N#CC1(C(=O)N2CCN(Cc3ccon3)CC2)CCC1` reads -20%; that for `CCCc1noc(CCC(=O)N2CCCC2c2noc(C3CC3)n2)n1` (centres undefined), -16.9%.
With `CCc1noc(CN2CCN(C(=O)N(C)C)CC2)n1` the figure was 20.5%.
With `CC(C)c1noc(CCCC(=O)N2CCC(Cc3cccnc3)CC2)n1` the figure was -20.7%; with `CCCc1noc(CCC(=O)N2CCCC2c2ccsc2)n1` (centres undefined), -16.1%.
Turning to `Cc1cc(CN(C)C(=O)NCc2cccc(N3CCCC3=O)c2)no1`, the cytotoxicity at 70.5 h was -25.6%.
As for `CN(Cc1ccc(F)cc1)C(=O)CN1CCOC(Cn2cncn2)C1` (centres undefined), the cytotoxicity at 70.5 h stood at 40.3%.
The result for `Cc1ccc(CN(C)C(=O)CN2CCOC(Cn3cncn3)C2)o1` (centres undefined) reads 9.12%.
